Several values for one entry are separate records, joined by “and”; a condition that tells them apart may be missing. Equal values may be shown once.
What was measured:
Assay in all cases: radiometric filter-binding kinase assay, Kinase HotSpot
Settings in all cases: compound 0.5 µM; ATP 10 µM
CDK6 CCND1 (human) = CDK6 CCND1 (human) (UniProt Q00534+P24385)
KDR (human) = KDR (human) (UniProt P35968)
EPHB1 (human) = EPHB1 (human) (UniProt P54762)
ADRBK1 (human) = ADRBK1 (human) (UniProt P25098)
MLTK (human) = MLTK (human) (UniProt Q9NYL2)
CAMK1 (human) = CAMK1 (human) (UniProt Q14012)
RPS6KA5 KD2 (human) = RPS6KA5 KD2 (human) (UniProt O75582)
NEK3 (human) = NEK3 (human) (UniProt P51956)
SRMS (human) = SRMS (human) (UniProt Q9H3Y6)
NTRK2 (human) = NTRK2 (human) (UniProt Q16620)
PAK6 (human) = PAK6 (human) (UniProt Q9NQU5)
PHKG2 (human) = PHKG2 (human) (UniProt P15735)
MELK (human) = MELK (human) (UniProt Q14680)
NEK11 (human) = NEK11 (human) (UniProt Q8NG66)
FYN (human) = FYN (human) (UniProt P06241)
MAP3K11 (human) = MAP3K11 (human) (UniProt Q16584)
PNCK (human) = PNCK (human) (UniProt Q6P2M8)
PRKG1 (human) = PRKG1 (human) (UniProt Q13976)
SRPK1 (human) = SRPK1 (human) (UniProt Q96SB4)
STK24 (human) = STK24 (human) (UniProt Q9Y6E0)
LYN (human) = LYN (human) (UniProt P07948)
[1] = molecular target: JAK1 JH1 catalytic (human) (UniProt P23458)
KIT (human) = KIT (human) (UniProt P10721)
PRKCH (human) = PRKCH (human) (UniProt P24723)
ULK1 (human) = ULK1 (human) (UniProt O75385)
RET (human) = RET (human) (UniProt P07949)
RPS6KA1 KD1 KD2 (human) = RPS6KA1 KD1 KD2 (human) (UniProt Q15418)
TTK (human) = TTK (human) (UniProt P33981)
NTRK3 (human) = NTRK3 (human) (UniProt Q16288)
LTK (human) = LTK (human) (UniProt P29376)
RPS6KB2 (human) = RPS6KB2 (human) (UniProt Q9UBS0)
FGFR2 (human) = FGFR2 (human) (UniProt P21802)
NUAK1 (human) = NUAK1 (human) (UniProt O60285)
MAPK3 (human) = MAPK3 (human) (UniProt P27361)
PTK6 (human) = PTK6 (human) (UniProt Q13882)
PTK2 (human) = PTK2 (human) (UniProt Q05397)
CDK9 CCNT1 (human) = CDK9 CCNT1 (human) (UniProt P50750+O60563)
CSNK1A1 (human) = CSNK1A1 (human) (UniProt P48729)
NEK1 (human) = NEK1 (human) (UniProt Q96PY6)
MAPK9 (human) = MAPK9 (human) (UniProt P45984)
CLK4 (human) = CLK4 (human) (UniProt Q9HAZ1)
SRPK2 (human) = SRPK2 (human) (UniProt P78362)

Chain of ULK1 (human) (O75385 whole entry, looked up): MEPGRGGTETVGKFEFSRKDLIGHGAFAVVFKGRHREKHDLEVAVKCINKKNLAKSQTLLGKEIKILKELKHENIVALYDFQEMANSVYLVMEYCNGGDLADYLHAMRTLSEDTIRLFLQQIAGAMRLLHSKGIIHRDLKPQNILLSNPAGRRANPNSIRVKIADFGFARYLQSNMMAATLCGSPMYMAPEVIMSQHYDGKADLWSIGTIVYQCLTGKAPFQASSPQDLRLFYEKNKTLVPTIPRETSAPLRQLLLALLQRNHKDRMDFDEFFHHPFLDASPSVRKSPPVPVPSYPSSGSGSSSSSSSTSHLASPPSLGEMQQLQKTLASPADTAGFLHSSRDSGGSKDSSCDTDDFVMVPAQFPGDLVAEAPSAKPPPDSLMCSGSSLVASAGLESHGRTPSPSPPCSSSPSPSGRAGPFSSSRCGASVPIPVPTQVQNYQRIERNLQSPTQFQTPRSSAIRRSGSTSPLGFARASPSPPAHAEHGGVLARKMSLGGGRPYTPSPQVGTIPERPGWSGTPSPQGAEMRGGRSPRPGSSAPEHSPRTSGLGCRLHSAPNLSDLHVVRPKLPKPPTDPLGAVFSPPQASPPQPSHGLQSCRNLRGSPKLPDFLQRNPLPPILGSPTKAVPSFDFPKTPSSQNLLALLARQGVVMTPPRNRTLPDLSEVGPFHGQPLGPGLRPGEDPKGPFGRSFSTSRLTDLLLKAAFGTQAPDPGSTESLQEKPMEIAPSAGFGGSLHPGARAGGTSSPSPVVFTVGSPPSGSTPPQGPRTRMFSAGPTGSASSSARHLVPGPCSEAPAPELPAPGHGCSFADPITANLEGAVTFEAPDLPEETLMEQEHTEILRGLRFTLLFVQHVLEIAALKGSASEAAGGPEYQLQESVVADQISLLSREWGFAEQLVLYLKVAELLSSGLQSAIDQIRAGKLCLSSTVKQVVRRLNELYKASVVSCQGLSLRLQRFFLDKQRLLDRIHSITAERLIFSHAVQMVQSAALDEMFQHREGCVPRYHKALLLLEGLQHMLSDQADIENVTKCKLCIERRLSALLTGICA
Chain of NEK3 (human) (P51956 whole entry, looked up): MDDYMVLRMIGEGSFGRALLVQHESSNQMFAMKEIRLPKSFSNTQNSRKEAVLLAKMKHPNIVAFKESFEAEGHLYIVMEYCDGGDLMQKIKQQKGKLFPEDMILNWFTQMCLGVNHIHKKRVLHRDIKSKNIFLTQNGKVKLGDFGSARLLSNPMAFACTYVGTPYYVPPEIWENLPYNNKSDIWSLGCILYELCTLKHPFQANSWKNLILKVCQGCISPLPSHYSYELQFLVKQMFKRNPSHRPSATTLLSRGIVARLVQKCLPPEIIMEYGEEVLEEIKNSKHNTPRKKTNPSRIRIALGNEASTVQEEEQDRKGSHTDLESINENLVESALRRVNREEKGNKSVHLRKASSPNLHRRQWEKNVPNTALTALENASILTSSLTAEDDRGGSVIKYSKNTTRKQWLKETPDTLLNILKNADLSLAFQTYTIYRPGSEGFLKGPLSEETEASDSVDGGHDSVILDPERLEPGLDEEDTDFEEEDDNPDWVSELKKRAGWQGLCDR
Chain of PAK6 (human) (Q9NQU5 whole entry, looked up): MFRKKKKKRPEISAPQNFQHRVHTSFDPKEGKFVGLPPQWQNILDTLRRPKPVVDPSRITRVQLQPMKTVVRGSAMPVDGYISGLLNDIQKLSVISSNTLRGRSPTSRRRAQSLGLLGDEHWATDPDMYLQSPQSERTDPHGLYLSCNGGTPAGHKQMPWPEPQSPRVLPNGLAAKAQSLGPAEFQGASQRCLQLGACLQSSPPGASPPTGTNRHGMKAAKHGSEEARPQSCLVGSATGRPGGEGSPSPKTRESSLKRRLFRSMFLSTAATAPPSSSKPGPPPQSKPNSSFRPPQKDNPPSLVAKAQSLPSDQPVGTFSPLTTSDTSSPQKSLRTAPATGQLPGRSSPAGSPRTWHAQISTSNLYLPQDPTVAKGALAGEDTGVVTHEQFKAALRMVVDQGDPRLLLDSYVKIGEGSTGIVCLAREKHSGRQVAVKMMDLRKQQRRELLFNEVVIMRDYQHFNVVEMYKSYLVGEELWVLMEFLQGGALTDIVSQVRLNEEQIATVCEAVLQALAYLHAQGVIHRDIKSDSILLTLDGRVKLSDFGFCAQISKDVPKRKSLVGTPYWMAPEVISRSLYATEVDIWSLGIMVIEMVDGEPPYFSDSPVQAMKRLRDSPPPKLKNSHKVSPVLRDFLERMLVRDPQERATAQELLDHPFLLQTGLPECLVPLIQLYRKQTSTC
Chain of CAMK1 (human) (Q14012 whole entry, looked up): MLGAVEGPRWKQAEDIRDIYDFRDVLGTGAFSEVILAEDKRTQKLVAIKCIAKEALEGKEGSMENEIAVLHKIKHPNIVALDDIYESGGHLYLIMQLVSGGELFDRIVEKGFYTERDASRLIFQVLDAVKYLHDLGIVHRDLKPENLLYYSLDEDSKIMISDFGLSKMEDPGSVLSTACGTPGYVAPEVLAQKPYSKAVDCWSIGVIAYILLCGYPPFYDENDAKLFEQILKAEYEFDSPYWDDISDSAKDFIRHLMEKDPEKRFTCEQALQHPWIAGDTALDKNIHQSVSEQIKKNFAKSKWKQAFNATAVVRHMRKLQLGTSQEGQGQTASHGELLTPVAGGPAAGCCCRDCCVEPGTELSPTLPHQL
Chain of KDR (human) (P35968 whole entry, looked up): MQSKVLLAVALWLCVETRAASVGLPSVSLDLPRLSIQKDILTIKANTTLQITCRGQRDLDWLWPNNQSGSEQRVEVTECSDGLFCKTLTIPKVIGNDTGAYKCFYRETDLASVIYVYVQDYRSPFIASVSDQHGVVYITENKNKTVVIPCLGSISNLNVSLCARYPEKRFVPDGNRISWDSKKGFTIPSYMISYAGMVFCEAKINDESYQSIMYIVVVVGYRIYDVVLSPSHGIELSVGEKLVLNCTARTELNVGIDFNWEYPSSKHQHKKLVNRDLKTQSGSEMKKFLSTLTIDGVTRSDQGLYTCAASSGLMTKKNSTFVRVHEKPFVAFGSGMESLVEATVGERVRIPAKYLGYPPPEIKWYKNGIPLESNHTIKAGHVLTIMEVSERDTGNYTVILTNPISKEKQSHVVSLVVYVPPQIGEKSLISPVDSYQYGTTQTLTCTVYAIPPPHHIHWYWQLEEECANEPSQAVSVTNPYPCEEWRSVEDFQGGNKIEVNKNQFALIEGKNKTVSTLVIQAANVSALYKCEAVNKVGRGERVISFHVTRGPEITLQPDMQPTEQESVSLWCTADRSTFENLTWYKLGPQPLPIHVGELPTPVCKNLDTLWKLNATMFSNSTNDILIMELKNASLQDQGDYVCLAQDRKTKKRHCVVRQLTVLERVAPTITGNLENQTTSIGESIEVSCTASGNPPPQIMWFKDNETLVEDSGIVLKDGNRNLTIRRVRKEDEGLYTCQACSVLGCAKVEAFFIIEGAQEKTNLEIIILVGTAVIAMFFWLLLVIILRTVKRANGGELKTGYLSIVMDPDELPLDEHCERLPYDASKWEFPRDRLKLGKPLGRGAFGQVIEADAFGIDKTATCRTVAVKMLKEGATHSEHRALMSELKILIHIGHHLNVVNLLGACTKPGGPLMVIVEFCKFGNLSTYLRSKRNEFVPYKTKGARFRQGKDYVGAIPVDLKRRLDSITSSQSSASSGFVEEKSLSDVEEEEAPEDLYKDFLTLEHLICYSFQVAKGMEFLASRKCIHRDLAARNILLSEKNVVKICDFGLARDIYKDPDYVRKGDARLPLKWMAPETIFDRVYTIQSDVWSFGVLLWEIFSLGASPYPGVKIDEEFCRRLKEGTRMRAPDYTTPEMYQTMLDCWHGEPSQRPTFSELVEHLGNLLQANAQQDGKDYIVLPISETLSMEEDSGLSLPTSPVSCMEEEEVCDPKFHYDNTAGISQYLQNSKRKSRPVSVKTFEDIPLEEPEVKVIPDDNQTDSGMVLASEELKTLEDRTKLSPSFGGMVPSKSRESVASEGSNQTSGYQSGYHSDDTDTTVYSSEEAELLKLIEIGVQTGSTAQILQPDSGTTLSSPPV
Chain of PTK6 (human) (Q13882 whole entry, looked up): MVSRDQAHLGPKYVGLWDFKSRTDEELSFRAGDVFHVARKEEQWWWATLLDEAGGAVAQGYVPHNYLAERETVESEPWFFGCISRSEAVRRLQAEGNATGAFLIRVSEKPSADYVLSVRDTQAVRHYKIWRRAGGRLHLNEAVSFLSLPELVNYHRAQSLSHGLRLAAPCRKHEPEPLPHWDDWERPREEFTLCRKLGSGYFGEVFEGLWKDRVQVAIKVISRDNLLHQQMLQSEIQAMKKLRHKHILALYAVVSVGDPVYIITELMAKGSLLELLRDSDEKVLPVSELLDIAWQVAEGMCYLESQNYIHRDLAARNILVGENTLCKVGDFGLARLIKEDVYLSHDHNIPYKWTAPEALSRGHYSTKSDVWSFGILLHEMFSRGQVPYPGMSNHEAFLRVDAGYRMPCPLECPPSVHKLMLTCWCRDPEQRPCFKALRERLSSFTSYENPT
Chain of SRMS (human) (Q9H3Y6 whole entry, looked up): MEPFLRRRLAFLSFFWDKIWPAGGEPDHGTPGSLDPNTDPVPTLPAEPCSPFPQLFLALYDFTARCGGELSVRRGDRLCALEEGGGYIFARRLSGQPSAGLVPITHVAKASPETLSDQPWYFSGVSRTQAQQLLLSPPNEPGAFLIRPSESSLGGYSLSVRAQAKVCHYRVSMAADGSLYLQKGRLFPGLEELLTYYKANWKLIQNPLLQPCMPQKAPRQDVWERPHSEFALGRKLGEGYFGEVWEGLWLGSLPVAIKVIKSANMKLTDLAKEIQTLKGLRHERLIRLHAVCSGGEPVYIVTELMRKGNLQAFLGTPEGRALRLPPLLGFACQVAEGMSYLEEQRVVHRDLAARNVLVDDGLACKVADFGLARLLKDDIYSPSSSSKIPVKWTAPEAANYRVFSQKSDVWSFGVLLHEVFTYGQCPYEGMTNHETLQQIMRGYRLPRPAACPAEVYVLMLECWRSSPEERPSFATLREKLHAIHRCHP

Compound: CC(C)(C)c1nc2c3ccc(F)cc3c3c(=O)[nH]ccc3c2[nH]1
- residual activity (CDK6 CCND1 (human)): 87.7%
- residual activity (KDR (human)): 103%
- residual activity (EPHB1 (human)): 94.9%
- residual activity (ADRBK1 (human)): 98.5%
- residual activity (MLTK (human)): 78.1%
- residual activity (CAMK1 (human)): 79.3%
- residual activity (RPS6KA5 KD2 (human)): 58%
- residual activity (NEK3 (human)): 74.4%
- residual activity (SRMS (human)): 98.7%
- residual activity (NTRK2 (human)): 16.1%
- residual activity (PAK6 (human)): 90.9%
- residual activity (PHKG2 (human)): 57.3%
- residual activity (MELK (human)): 5.23%
- residual activity (NEK11 (human)): 92.4%
- residual activity (FYN (human)): 52.3%
- residual activity (MAP3K11 (human)): 57%
- residual activity (PNCK (human)): 112%
- residual activity (PRKG1 (human)): 40.2% and 52.3%
- residual activity (SRPK1 (human)): 115%
- residual activity (STK24 (human)): 82.4%
- residual activity (LYN (human)): 101% and 95.9%
- residual activity [1]: 2.54%
- residual activity (KIT (human)): 96.1%
- residual activity (PRKCH (human)): 81.5%
- residual activity (ULK1 (human)): 12.8%
- residual activity (RET (human)): 18.3%
- residual activity (RPS6KA1 KD1 KD2 (human)): 38.6%
- residual activity (TTK (human)): 65.3%
- residual activity (NTRK3 (human)): 6.81%
- residual activity (LTK (human)): 20.6%
- residual activity (RPS6KB2 (human)): 102%
- residual activity (FGFR2 (human)): 99.1%
- residual activity (NUAK1 (human)): 3.04%
- residual activity (MAPK3 (human)): 85.7%
- residual activity (PTK6 (human)): 88%
- residual activity (PTK2 (human)): 35.3%
- residual activity (CDK9 CCNT1 (human)): 100%
- residual activity (CSNK1A1 (human)): 94.6%
- residual activity (NEK1 (human)): 49%
- residual activity (MAPK9 (human)): 31.1%
- residual activity (CLK4 (human)): 70.7%
- residual activity (SRPK2 (human)): 70.5%

Compound: CC(C)[C@H](CO)Nc1nc(Nc2cccc(Cl)c2)c2ncn(C(C)C)c2n1
- residual activity (CDK6 CCND1 (human)): 67.5%
- residual activity (KDR (human)): 95%
- residual activity (EPHB1 (human)): 83.5%
- residual activity (ADRBK1 (human)): 103%
- residual activity (MLTK (human)): 108%
- residual activity (CAMK1 (human)): 110%
- residual activity (RPS6KA5 KD2 (human)): 100%
- residual activity (NEK3 (human)): 94.2%
- residual activity (SRMS (human)): 104%
- residual activity (NTRK2 (human)): 33.4%
- residual activity (PAK6 (human)): 111%
- residual activity (PHKG2 (human)): 117%
- residual activity (MELK (human)): 69.5%
- residual activity (NEK11 (human)): 67.1%
- residual activity (FYN (human)): 48.9%
- residual activity (MAP3K11 (human)): 40.2%
- residual activity (PNCK (human)): 97.8%
- residual activity (PRKG1 (human)): 71.4% and 90.2%
- residual activity (SRPK1 (human)): 77%
- residual activity (STK24 (human)): 80.8%
- residual activity (LYN (human)): 60.2% and 82.5%
- residual activity [1]: 108%
- residual activity (KIT (human)): 91%
- residual activity (PRKCH (human)): 92.7%
- residual activity (ULK1 (human)): 67.5%
- residual activity (RET (human)): 81.4%
- residual activity (RPS6KA1 KD1 KD2 (human)): 77.3%
- residual activity (TTK (human)): 116%
- residual activity (NTRK3 (human)): 15%
- residual activity (LTK (human)): 100%
- residual activity (RPS6KB2 (human)): 101%
- residual activity (FGFR2 (human)): 105%
- residual activity (NUAK1 (human)): 71.1%
- residual activity (MAPK3 (human)): 104%
- residual activity (PTK6 (human)): 89.2%
- residual activity (PTK2 (human)): 85.9%
- residual activity (CDK9 CCNT1 (human)): 65%
- residual activity (CSNK1A1 (human)): 91.8%
- residual activity (NEK1 (human)): 107%
- residual activity (MAPK9 (human)): 102%
- residual activity (CLK4 (human)): 50.9%
- residual activity (SRPK2 (human)): 53.6%

Compound: COc1cc2nccc(Oc3ccc(NC(=S)NC(=O)c4ccccc4C)cc3)c2cc1OC
- residual activity (CDK6 CCND1 (human)): 87.1%
- residual activity (KDR (human)): 74.1%
- residual activity (EPHB1 (human)): 98.5%
- residual activity (ADRBK1 (human)): 95.6%
- residual activity (MLTK (human)): 71.7%
- residual activity (CAMK1 (human)): 101%
- residual activity (RPS6KA5 KD2 (human)): 95.3%
- residual activity (NEK3 (human)): 99.6%
- residual activity (SRMS (human)): 111%
- residual activity (NTRK2 (human)): 102%
- residual activity (PAK6 (human)): 95.8%
- residual activity (PHKG2 (human)): 110%
- residual activity (MELK (human)): 98.5%
- residual activity (NEK11 (human)): 96.7%
- residual activity (FYN (human)): 77.4%
- residual activity (MAP3K11 (human)): 95.5%
- residual activity (PNCK (human)): 93.2%
- residual activity (PRKG1 (human)): 101% and 91.6%
- residual activity (SRPK1 (human)): 98%
- residual activity (STK24 (human)): 101%
- residual activity (LYN (human)): 16.9% and 31.8%
- residual activity [1]: 96.7%
- residual activity (KIT (human)): 34.5%
- residual activity (PRKCH (human)): 95.1%
- residual activity (ULK1 (human)): 95%
- residual activity (RET (human)): 86.7%
- residual activity (RPS6KA1 KD1 KD2 (human)): 97.3%
- residual activity (TTK (human)): 101%
- residual activity (NTRK3 (human)): 86.1%
- residual activity (LTK (human)): 86.1%
- residual activity (RPS6KB2 (human)): 97.3%
- residual activity (FGFR2 (human)): 89%
- residual activity (NUAK1 (human)): 82.5%
- residual activity (MAPK3 (human)): 106%
- residual activity (PTK6 (human)): 33.9%
- residual activity (PTK2 (human)): 90.7%
- residual activity (CDK9 CCNT1 (human)): 104%
- residual activity (CSNK1A1 (human)): 96.3%
- residual activity (NEK1 (human)): 96.7%
- residual activity (MAPK9 (human)): 82.7%
- residual activity (CLK4 (human)): 87.8%
- residual activity (SRPK2 (human)): 93.4%
